In publication PMC11790956, “A microscale thermophoresis-based enzymatic RNA methyltransferase assay enables the discovery of DNMT2 inhibitors” (Communications Chemistry, 2025):
“Also recorded” adds a separate entry of the source. Each block holds one compound with its values, some of them ahead of it.

Legend:
[1] = biological target: T1, DNMT2-tRNA complex (Homo sapiens, UniProt O14717); assay: Electrophoretic mobility shift assay (EMSA) of the DNMT2-tRNA complex; type: binding; settings: 500 µM compound, DNMT2 10 µM, tRNAAsp 5 µM
T1 construct: made in house
T1 sequence (O14717 1-391): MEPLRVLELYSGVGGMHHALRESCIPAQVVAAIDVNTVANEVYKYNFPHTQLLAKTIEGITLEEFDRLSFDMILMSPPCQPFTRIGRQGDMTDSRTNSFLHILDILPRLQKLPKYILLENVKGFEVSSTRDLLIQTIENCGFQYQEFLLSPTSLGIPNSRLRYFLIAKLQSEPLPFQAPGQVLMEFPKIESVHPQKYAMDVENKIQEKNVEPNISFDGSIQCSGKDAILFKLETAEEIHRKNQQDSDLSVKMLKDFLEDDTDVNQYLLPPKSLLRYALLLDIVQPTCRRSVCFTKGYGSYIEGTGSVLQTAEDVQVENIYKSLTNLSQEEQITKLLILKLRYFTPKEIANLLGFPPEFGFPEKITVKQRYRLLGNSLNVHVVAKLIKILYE
Protocol: We speculated these hits might bind very weakly to the tRNA-DNMT2 interaction site and by this inhibit DNMT2 activity. To test this hypothesis, we performed an electrophoretic mobility shift assay (EMSA) using tRNA^Asp (5 µM) and DNMT2 (10 µM) compared to the tRNA sample in absence of the DNMT2 protein (SI Fig. 4)[33]. […] Subsequently, we treated the DNMT2-tRNA complex with all hit compounds at 500 µM and observed their potential to disrupt the complex.
DNMT2 (10 µM) was mixed with tRNA^Asp (5 µM) and treated with 500 µM of the respective screening hit compound in DNMT2 assay buffer (100 mM Tris-HCl, pH 8, 100 mM NH4OAc, 0.1 mM EDTA, 10 mM MgCl2, 10 mM DTT). Subsequently, reaction samples (each 5 µL) were loaded to a native 10% polyacrylamide gel and separated electrophoretically (1 h, 180 V) in 1x TBE. RNA was stained in situ with 1x GelRed and PAGE analysis was conducted by fluorescence scanning at an excitation wavelength of 532 nm (Amersham Typhoon 9400). Positive control: DNMT2+tRNA (band at high molecular weights); negative control: only tRNA (band at low molecular weights).
SI Figure 4. Electrophore?c mobility shi? assay (EMSA) to inves?gate the inﬂuence of screening hits on the DNMT2-tRNA complex forma?on. D NMT2 (10 µ M ) was mixe d w it h t RNAAsp (5 µM) and treated with 50 0 µM of the respec?ve screening hit compound in DNMT2 assay buﬀer. All reac?on samples (each 5 µL) were loaded to a na?ve 10% polyacr ylamide gel and separated electrophore?cally (1 h, 1 80 V) in 1x TBE. RNA was stained in situ with 1x GelRed and PAGE analysis was conducted by ﬂuorescence scanning at an excita?on wavelength of 532 nm (Amersham Typhoon 9400). Po s i ? ve control: DNMT2+tRNA (band at high molecular weights); nega?ve control: only tRNA (band at low

[2] = biological target: T2, DNMT2 (Homo sapiens, UniProt O14717); assay: DNMT2 enzymatic split aptamer MST assay; type: biochemical; settings: for IC50: MST-derived, 250 nM DNMT2, 5 µM tRNA, 0.9 µM SAM
T2 construct: made in house
T2 sequence (O14717 1-391): T1 sequence (O14717 1-391)
Protocol: The enzyme kinetics were characterized by calculating the Michaelis-Menten constant (KM or kcat) and inhibitory constants (IC50 resp. KI).
The final drug compound concentration was adjusted to 500 µM for the epigenetic drug library (Fig. 5) resp. 100 µM for the covalent compound library (Fig. 6), and the enzymatic reaction was incubated for 30 min at 25 °C. Subsequently, enzymatic reactions were terminated by the addition of 0.3% SDS, and the product SAH was quantified by the split aptamer MST assay (Figs. 5A, B, 6A).

[3] = biological target: T2, DNMT2; assay: DNMT2 fluorescence polarization (FP) FTAD displacement assay; type: binding
Protocol: Fluorescence polarization assays were conducted with a similar sample composition as described for FTAD-MST assays as described previously. Triplicates (50 µL) were prepared in black 96-well half-area plates (Greiner) and measured using a Spark 10 M plate reader (Tecan) equipped with polarization filters coupled to a monochromator setup (FTAD: λex = 480 nm, λem = 530 nm). Polarization values (in mP) were calculated from polarization-specific parallel and orthogonal fluorescence intensities according to the Tecan in-built calculation routine.
Reversibility of alexidine binding to DNMT2 was evaluated with a modified FP-assay setup. Briefly, reaction mixtures containing alexidine were prepared in black 96-well half-area plates, and after FP measurement, the volume of one well (50 µL) was collected and applied to a Zeba™ Spin Desalting Column (7 K MWCO) while 5 µL of a 10x DNMT2 buffer solution (500 mM HEPES, 1.5 M NaCl, 10 mM dithiothreitol (DTT), 1% PEG-8000, 0.5% polysorbate-20, pH 7.4) was placed in the collection tube attached to the SEC column. This procedure separated alexidine and restored the initial composition of the DNMT2 assay solution.
Kinetic FP assays were performed to assess the time-dependent inactivation of DNMT2 treated with covalent inhibitors. Briefly, samples contained 2 µM DNMT2, 100 nM FTAD probe, and 1.3% DMSO in DNMT2 MST buffer. Inhibitors were added from DMSO stocks. Negative inhibition control was performed by mock treatment with DMSO. Reactions were initiated by the addition of the Cpd 11 (adamantanyl-acryloylurea) and monitored for 120 min at 25 °C in a Tecan Spark 10 M plate reader (FTAD: λex = 480 nm, λem = 530 nm) The irreversible inhibition kinetics were analyzed as described previously[35],[36].

[4] = biological target: T2, DNMT2; assay: DNMT2 radiometric 3H incorporation assay; type: biochemical
Protocol: (§1) To further validate our findings on DNMT2, we compared the split aptamer inhibition assay results of both inhibitors with those obtained from a previously published orthogonal assay method, the radiometric ^3H incorporation assay[8],[26]. […] Using an additional non-enzymatic MTase assay technique, we also investigated the two DNMT2 inhibitors utilizing an orthogonal MST method based on a fluorescent tracer displacement assay (SI Fig. 1)[27],[28].
Radiometric DNMT2 assays were carried out as described previously. HTRF MTase assays with the commercial AptaFluor SAH assay kit (BellBrook Labs) were performed as described in the manufacturer’s manual in 96-well format.

[5] = biological target: T2, DNMT2; assay: Fluorescent tracer displacement assay (FTAD-MST assay); type: binding
Excerpt: as §1
Fluorescent tracer displacement MST assays for orthogonal ligand evaluation were conducted as described previously. The samples contained 2 µM DNMT2, 100 nM FTAD probe, and 1.3% DMSO in MST buffer (50 mM HEPES, 150 mM NaCl, 1 mM dithiothreitol (DTT), 0.1% PEG-8000, 0.05% polysorbate-20, pH 7.4) supplemented with variable concentrations of the screening compounds. All samples were measured in triplicates in Monolith standard capillaries at 25 °C. The acquisition mode was set to “Nano-Blue” with an excitation power of 30% and a medium MST power. MST measurements were analyzed using the NT analysis software (version 1.5.41) and exported for statistical analysis and plotting in GraphPad Prism 7.01.

[6] = test system: aptaSAH1&2 SAH split aptamer; assay: Split aptamer (aptaSAH1&2) MST ligand titration; type: binding, D. aromatica
Protocol: To establish our experimental setup, we mixed both aptamer fragment oligonucleotides at equimolar concentrations (final: 50 nM) and titrated series of SAH resp. SAM dilutions to this prototypical SAH biosensor. […] Furthermore, MST assays require only 10 µL of sample volume per capillary compared to 30 µL per well in a 96-well plate supporting high-throughput applications in material consumption.
To evaluate the effect of inhibitors on DNMT2 activity, we used two known inhibitors, SHO108 and SH112. These SAH derivatives were selected based on their documented efficacy for DNMT2[8],[26].
For MTase assay detection by MST, enzyme reaction mixtures with a total volume of 10 µL per single treatment condition were prepared and incubated for the desired reaction times. Inhibitors were added from corresponding DMSO stocks to a final DMSO concentration of max. 5%. Afterward, reactions were quenched at a given reaction time by the addition of 1 µL sodium dodecyl sulfate (SDS, solution, 3% in water) per 10 µL reaction mixture and mixed well by pipetting. Subsequently, 1 µL of a 10× aptamer-containing detection master mix (200 mM Tris, pH 8.5, 200 mM MgCl2, 3 M NaCl, 10 mM urea, 0.2% Brij, 500 nM aptaSAH1, 500 nM aptaSAH2) was added to the quenched MTase reaction and incubated for 1 h at room temperature. Reaction mixtures were loaded directly to MST capillaries without further purification or sample processing.
MST experiments were carried out in at least technical triplicates using a Monolith NT.115 instrument (NanoTemper Technologies) using Monolith standard capillaries and the blue excitation laser setup. The instrument was calibrated according to the manufacturer’s instructions. General settings were applied for all MST experiments as follows: manual temperature control: 25 °C, fluorescence measurement before MST: 4 s, MST (IR laser) on: 20 s, fluorescence after MST: 2 s, delay: 25 s. The laser power was adjusted to optimize the signal-to-noise ratio and the fluorescence signal. LED and MST power settings were chosen individually for each sample by adjusting the LED power to yield fluorescence signals of at least 300 units (blue laser) or 3000 units (red laser) and the MST power to achieve an appropriate thermophoretic response (standard setting: medium MST power). MST measurements were analyzed using the NT analysis software (version 1.5.41) and exported for statistical analysis and plotting in GraphPad Prism 7.01.

[7] = inhibitor titrated up to 100 µM without enzyme or RNA substrate, compared to the SAH-positive control

SMILES: c1cc(-c2cnn3cc(-c4ccc(OCCN5CCCCC5)cc4)cnc23)ccn1 [Cpd 1]
influence on DNMT2-tRNA complex formation [1]: showed the potential to reverse the complex formation

SMILES: COc1cc2nc(N3CCCN(C)CC3)nc(NC3CCN(Cc4ccccc4)CC3)c2cc1OC [Cpd 2]
influence on DNMT2-tRNA complex formation [1]: showed the potential to reverse the complex formation

DNMT2 inhibition at concentrations <500 µM ([2]; enzymatic aptamer assay): showed inhibition
fluorescence polarization in the presence of compound ([3]; DNMT2-FTAD complex alone 96 mP): 5 mP
Kd ([3]; DNMT2 FP assay, FTAD tracer): 364 µM
reversibility of binding ([3]; FP displacement with SEC separation): fully reversible binder
fluorescence polarization restored after size-exclusion chromatography ([3]; after SEC removal of compound): 92 mP
fluorescence polarization after second treatment ([3]; second treatment after SEC): 4 mP
SMILES: CCCCC(CC)CNC(=N)NC(=N)NCCCCCCNC(=N)NC(=N)NCC(CC)CCCC (centres unmarked) [Cpd 3, alexidine]
influence on DNMT2-tRNA complex formation [1]: do not inﬂuence the complex; also recorded: did not influence DNMT2-tRNA complex formation
displacement of FTAD tracer / binding to SAH-binding site ([3]; FP library screening with FTAD tracer): binding to the SAH-binding site; also recorded: able to compete with the fluorescent SAH-analog

SMILES: CC(=O)c1cc([N+](=O)[O-])c(Sc2ccc(F)cc2F)s1 [Cpd 4]
influence on DNMT2-tRNA complex formation [1]: do not inﬂuence the complex; also recorded: unable to disrupt the protein-tRNA complex

SMILES: Cc1ncc(Cl)cc1NCc1ccc(C(=O)N[C@@H](CC2CCCC2)C(=O)NC2CC2)s1 [Cpd 5]
influence on DNMT2-tRNA complex formation [1]: showed the potential to reverse the complex formation

SMILES: COc1ccn2ncc(-c3nc4[nH]nc(NC(=O)c5ccc(F)cc5)c4cc3F)c2c1 [Cpd 6]
influence on DNMT2-tRNA complex formation [1]: showed the potential to reverse the complex formation

SMILES: Cc1cc(Nc2cc(Cl)nc(Oc3ccc([N+](=O)[O-])cc3)n2)n[nH]1 [Cpd 7]
influence on DNMT2-tRNA complex formation [1]: do not inﬂuence the complex; also recorded: unable to disrupt the protein-tRNA complex

SMILES: N[C@H](CNc1nc(-c2ccncc2)nc2sc3c(c12)CCCC3)Cc1ccccc1 [Cpd 8]
influence on DNMT2-tRNA complex formation [1]: showed the potential to reverse the complex formation

SMILES: CNC(=O)Nc1ccc2c(c1)CCC21OC(=O)N(CC(=O)N(Cc2ccc(F)cc2)C(C)C(F)(F)F)C1=O (centres unmarked) [Cpd 9]
influence on DNMT2-tRNA complex formation [1]: showed the potential to reverse the complex formation

SMILES: Cc1ccc(C(=O)COC(=O)c2cccc(NC(=O)c3ccc([N+](=O)[O-])cc3[N+](=O)[O-])c2)cc1 [Cpd 10]
influence on DNMT2-tRNA complex formation [1]: do not inﬂuence the complex; also recorded: unable to disrupt the protein-tRNA complex

SMILES: Nc1ncnc2c1ncn2[C@@H]1O[C@H](CN(CC[C@H](N)C(=O)O)Cc2ccc(Cl)c(C(F)(F)F)c2)[C@@H](O)[C@H]1O [SH112, (S)-2-amino-4-((((2 R,3S,4 R,5 R)-5-(6-amino-9H-purin-9-yl)-3,4-dihydroxytetrahydrofuran-2-yl)methyl)(4-chloro-3-(trifluoromethyl)benzyl)amino)butanoic acid]
IC50 [2]: 9.3 ± 1.7 µM
IC50 [4]: 15.6 ± 3.9 µM
Kd [5]: 7.8 µM
binding to split aptamer (MST shift) [6, 7]: not binding to the aptamer at relevant concentrations; also recorded: only minimal MST shifts

IC50 [2]: 7.9 ± 1.8 µM
IC50 ([4]; orthogonal 3H-incorporation assay, read-out: IC50): 9.3 ± 1.8 µM
Kd ([5]; MST FTAD tracer displacement, 2 µM DNMT2, 100 nM FTAD, read-out: KD): 4.7 µM
SMILES: C#CCN(CC[C@H](N)C(=O)O)C[C@H]1O[C@@H](n2cnc3c(N)ncnc32)[C@H](O)[C@@H]1O [SHO108, (S)-2-amino-4-((((2 R,3S,4 R,5 R)-5-(6-amino-9H-purin-9-yl)-3,4-dihydroxytetrahydrofuran-2-yl)methyl)(prop-2-yn-1-yl)amino)butanoic acid]
binding to split aptamer (MST shift) [6, 7]: not binding to the aptamer at relevant concentrations; also recorded: only minimal MST shifts

binding to split aptamer (MST shift) ([6]; SAH analogs at 10 µM, aptaSAH1&2 both 50 nM): slight MST shift
SMILES: Nc1ncnc2c1ncn2[C@@H]1O[C@H](C[C@@H](N)CC[C@H](N)C(=O)O)[C@@H](O)[C@H]1O [sinefungin]
